Results taken from patent publication US9139652B2, “Method for increasing M1 macrophages in a patient” (TRANSGENE SA, priority 2011, dated 2015).
Where two headings read alike, the source gives them in different places.

How the values were obtained:
[1] = tested on: differentiating macrophages; test: Human macrophage differentiation assay: cytotoxicity / cell counts at day 6; type: cell-based
From the text: Cells were counted following a 6-day culture of monocytes with GM-CSF and CSF-1, in the presence or absence of anti-CD115 mAbs or F(ab′)2 or with GW2580. Controls included cultures treated with rituximab or rituximab F(ab′)2, or without any added compound.
Buffy coats were provided by the Etablissement Francais du Sang (EFS, Strasbourg). Peripheral blood mononucleated cells (PBMC) were obtained by centrifugation on a ficoll gradient. Monocytes were purified by immunomagnetic cell sorting, using CD14-antibody-coated beads (Miltenyii). […] Monocytes were differentiated for 6 days in 48-well plates (3×10^5 cells/well) in RPMI-Glutamax™ medium supplemented with 10% heat inactivated fetal calf serum and 1% tri-antibiotic mixture (penicillin, streptomycin, neomycin). GM-CSF (10 ng/ml) was added in the cell culture medium from day 0 to day 3. H27K15, other antibodies or internal control GW2580 (LC Labs) were added at day 0. On day 3 post-isolation, monocytes were washed with PBS and further cultivated in medium supplemented with CSF-1 (10 ng/ml) and GM-CSF (2 ng/ml), in the presence or absence of antibodies or GW2580. On day 6, supernatants were collected and stored at −20° C. Cells were detached from the plastic and pools of triplicates were analyzed by IC/FC (immunocytochemistry/flow cytometry) for cell sizes and expression of FcγR and CD86. Cytokines and chemokines were quantified in the culture supernatants by multiplex (Bioplex, Bio-Rad) or by ELISA.
Three different doses of mab H27K15 or isotype control rituximab (0.1; 1 or 10 μg/ml) were added to the culture medium at the beginning of the culture and again 3 days later. F(ab′)2 generated from H27K15 or from rituximab were tested in parallel at equivalent molar concentrations.
Cell viability was analyzed at day 6 by counting 5 microscope fields in each well of the plate (one in the center of the well and four fields at mid-distance between the center and the side of the well).

[2] = tested on: IL-12p70 and IL-10 secretion by macrophages; test: Human macrophage differentiation assay: IL-12p70 and IL-10 in day-6 culture supernatants; type: cell-based; settings: for IL-12p70 secretion: detection limit 1 pg/ml
Description: IL-12p70 and IL-10 were titrated in the culture supernatants from day-6 macrophages differentiated in the presence of mAb H27K15 (1 μg/ml), GW2580 (1 μM) or their respective negative controls rituximab or no treatment. Left panel: IL-12p70 and IL-10 levels (pg/ml) in macrophage cultures from 3 blood donors. Right: IL-12p70 (pg/ml)/IL-10 (pg/ml) ratios were calculated for each blood donor and each culture condition. In samples where IL-12p70 was undetectable (below the detection limit of 1 pg/m)l, its level was arbitrarily set at 1 pg/ml for the calculation of IL-12p70/IL-10 ratios.
(§1) Buffy coats were provided by the Etablissement Francais du Sang (EFS, Strasbourg). Peripheral blood mononucleated cells (PBMC) were obtained by centrifugation on a ficoll gradient. Monocytes were purified by immunomagnetic cell sorting, using CD14-antibody-coated beads (Miltenyii). Enriched monocyte suspensions were more than 95% pure. Monocytes were differentiated for 6 days in 48-well plates (3×10^5 cells/well) in RPMI-Glutamax™ medium supplemented with 10% heat inactivated fetal calf serum and 1% tri-antibiotic mixture (penicillin, streptomycin, neomycin). GM-CSF (10 ng/ml) was added in the cell culture medium from day 0 to day 3. H27K15, other antibodies or internal control GW2580 (LC Labs) were added at day 0. On day 3 post-isolation, monocytes were washed with PBS and further cultivated in medium supplemented with CSF-1 (10 ng/ml) and GM-CSF (2 ng/ml), in the presence or absence of antibodies or GW2580. On day 6, supernatants were collected and stored at −20° C. Cells were detached from the plastic and pools of triplicates were analyzed by IC/FC (immunocytochemistry/flow cytometry) for cell sizes and expression of FcγR and CD86. Cytokines and chemokines were quantified in the culture supernatants by multiplex (Bioplex, Bio-Rad) or by ELISA.
To study whether mAb H27K15 could affect macrophage differentiation, purified CD14^+ monocytes were cultured for […] in the presence of GM-CSF and CSF-1, known to induce respectively M1- and M2-type macrophages (Akagawa K. S., 2002; Verreck F. A. et al., 2004). Three different doses of mab H27K15 or isotype control rituximab (0.1; 1 or 10 μg/ml) were added to the culture medium at the beginning of the culture and again 3 days later. F(ab′)2 generated from H27K15 or from rituximab were tested in parallel at equivalent molar concentrations. F(ab′)2 generated from mAb 1.2 SM (WO 2009/026303) was tested for comparison with the F(ab′)2 derived from H27K15 or rituximab. The known blocking mAb to human CD115, 2-4A5, or the non-blocking mAb 9-4D2 (Sherr C. J. et al., 1989) were assayed and compared with isotype control rat IgG1. […]

[3] = tested on: CD163-positive M2-type macrophages; test: Flow cytometry of CD163-positive cells in day-6 macrophages; type: cell-based, human; settings: 3 donors
Description: FIG. 7 Cells obtained after 6-day culture with GM-CSF and CSF-1 were harvested and incubated for 20 min at 4° C. with PBS containing human IgG Fc fragments to saturate Fc receptors. Fluorochrome-conjugated mAbs (anti-CD14-PerCP-Cy5.5, anti-CD163-PE, anti-CD206-APC, anti-CD1a-FITC, BD Biosciences) were then incubated with each sample for 20 min at 4° C. FCM analysis was performed using a FACS LSR-II (BD biosciences) with the DIVA software. Data from 3 different blood donors are presented.
(§2) Buffy coats were provided by the Etablissement Francais du Sang (EFS, Strasbourg). Peripheral blood mononucleated cells (PBMC) were obtained by centrifugation on a ficoll gradient. Monocytes were purified by immunomagnetic cell sorting, using CD14-antibody-coated beads (Miltenyii). Enriched monocyte suspensions were more than 95% pure. […] Cells were detached from the plastic and pools of triplicates were analyzed by IC/FC (immunocytochemistry/flow cytometry) for cell sizes and expression of FcγR and CD86. Cytokines and chemokines were quantified in the culture supernatants by multiplex (Bioplex, Bio-Rad) or by ELISA. […]
The surface expression of CD163 was analyzed by flow cytometry in day-6 macrophages derived from human monocytes cultured with GM-CSF and CSF-1. […]

[4] = tested on: CD86^bright SSC^low macrophage population; test: Human macrophage differentiation assay: CD86^bright SSC^low population by IC/FC; type: cell-based; settings: day-6 macrophages, GW2580 vs no treatment
Description: Upper panels: Dot plots showing CD86 staining (x-axis) and side scatter (SSC, y-axis) of macrophages from donor 3 differentiated for 6 days in the presence of H27K15 (left) or negative control rituximab (right). A gate was set on the CD86^bright SSC^low cell population induced by H27K15. Lower panel: Percentages of CD86^bright SSC^low cells with the test compounds at 10, 1 or 0.1 μg/ml* were compared with those in the corresponding negative controls: H27K15 vs rituximab, H27K15-derived F(ab′)2 vs rituximab-derived F(ab′)2, GW2580 vs no treatment. Percentages of increase in the CD86^bright SSC^low cell population were calculated as: 100×percentage of CD86^bright SSC^low cells with test compound/percentage of CD86^bright SSC^low cells with control. Shown are the mean percentages of increase in the CD86^bright SSC^low cell population from the 3 blood donors. *except for F(ab′)2: 6.6; 0.6; and 0.06 μg/ml.
as §2, with “gradient.” for “gradient. Monocytes were purified by immunomagnetic cell sorting, using CD14-antibody-coated beads (Miltenyii). Enriched monocyte suspensions were more than 95% pure.”

[5] = tested on: MCP-1/CCL2 secretion by macrophages; test: Human macrophage differentiation assay: MCP-1 in day-6 culture supernatants; type: cell-based; settings: day-6 macrophage supernatants, GW2580 1 μM vs no treatment
Description: MCP-1 and IL-6 were titrated in the culture supernatants from day-6 macrophages differentiated in the presence of mAb H27K15 (1 μg/ml), GW2580 (1 μM) or their respective negative controls rituximab or no treatment. Percentages of reduction in MCP-1 (upper panel) or in IL-6 production (lower panel) were calculated for the 3 blood donors as: 100−[100×cytokine concentration with test compound (pg/ml)/cytokine concentration with control (pg/ml)].
as §1, with “H27K15, other antibodies or internal control GW2580 (LC Labs) were added at day 0. On day 3 post-isolation, monocytes were washed with PBS and further cultivated in medium supplemented with CSF-1 (10 ng/ml) and GM-CSF (2 ng/ml), in the presence or absence of antibodies or GW2580. On day 6, supernatants were collected and stored at −20° C.” left out, “ELISA. […]” for “ELISA.”

[6] = tested on: CD64 (FcγRI) expression in human macrophages; test: Human macrophage differentiation assay: surface CD64 expression by IC/FC; type: cell-based; settings: day-6 macrophages, GW2580 vs no treatment
Description: Macrophages obtained following a 6-day culture of monocytes from 3 different blood donors with GM-CSF and CSF-1 were analyzed by IC/FC for surface expression of CD64. Upper panels: CD64 staining in cultures from donor 1 treated with monoclonal antibody H27K15 (left, bold line) or with GW2580 (right, bold line) or their respective negative controls rituximab (left, thin line) or no treatment (right, thin line). Lower panel: Medians of fluorescence intensities in macrophage cultures treated with test compounds at 10, 1 or 0.1 μg/ml* were compared with those in the corresponding negative controls: H27K15 vs rituximab, H27K15-derived F(ab′)2 vs rituximab-derived F(ab′)2, mAbs 2-4A5 or 9-4D2 vs rat IgG1, GW2580 vs no treatment. Percentages of reduction in CD64 expression were calculated as: 100−[100×Median fluorescence intensity with test compound/Median fluorescence intensity with control]. […]
Buffy coats were provided by the Etablissement Francais du Sang (EFS, Strasbourg). […] Cells were detached from the plastic and pools of triplicates were analyzed by IC/FC (immunocytochemistry/flow cytometry) for cell sizes and expression of FcγR and CD86. Cytokines and chemokines were quantified in the culture supernatants by multiplex (Bioplex, Bio-Rad) or by ELISA. […]

[7] = tested on: MMP-9 production by monocytes cultured with GM-CSF and CSF-1; test: MMP-9 ELISA in day-6 supernatants of monocytes cultured with GM-CSF and CSF-1; type: cell-based, human; settings: GW2580, effect in 2 out of 3 donors
Description: FIG. 6. Monocytes isolated from 3 different blood donors were differentiated for 6 days in the presence of GM-CSF and CSF-1, with or without mAb H27K15, Rituximab or GW2580. MAb H27K15 or Rituximab (0.1, 1 or 10 μg/ml) or equimolar concentrations of F(ab)′2 derived from both mAbs were added to the cultures. MMP-9 was titrated by ELISA (R&D Systems) in day-6 culture supernatants.
Buffy coats were provided by the Etablissement Francais du Sang (EFS, Strasbourg). Peripheral blood mononucleated cells (PBMC) were obtained by centrifugation on a ficoll gradient. Monocytes were purified by immunomagnetic cell sorting, using CD14-antibody-coated beads (Miltenyii). Enriched monocyte suspensions were more than 95% pure. […] Cells were detached from the plastic and pools of triplicates were analyzed by IC/FC (immunocytochemistry/flow cytometry) for cell sizes and expression of FcγR and CD86. Cytokines and chemokines were quantified in the culture supernatants by multiplex (Bioplex, Bio-Rad) or by ELISA.
CD14^+ monocytes from 3 different donors were allowed to differentiate in the presence of both GM-CSF and CSF-1, known to induce macrophage differentiation towards respectively the M1- and M2-types. […] After 6 days of culture, MMP-9 concentrations were measured in the supernatants by ELISA (FIG. 6). […]

**Q.** With “Rituximab F(ab′)2: F(ab′)2 produced by pepsine digestion of rituximab, negative control” as the molecule, how does the “Microscopical observation of day-6 cultures (cytotoxicity)” value ([1]; compared with untreated cells, independently of the blood donor, monocytes cultured with GM-CSF and CSF-1) read?
**A.** no obvious differences

**Q.** Which results are given for `COc1ccc(COc2ccc(Cc3cnc(N)nc3N)cc2OC)cc1` [GW2580]?
**A.** IL-10 production ([2]; GW2580 1 μM): inhibition of IL-10 production; IL-12p70/IL-10 ratios ([2]; GW2580 1 μM vs no treatment): increased; IL-12p70 secretion ([2]; GW2580 1 μM): not detectable; Differentiation of the CD163+ macrophage population (CD163 expression) [3]: had the same effect in only ⅔ donors; Induction of CD86^bright SSC^low cell sub-population [4]: had appeared; Suppression of MCP-1 production [5]: as efficacious as H27K15; Microscopical observation of day-6 cultures (cytotoxicity) ([1]; 1 μM, all blood donors, debris and less density of cells): relative cytotoxicity; Macrophage number remaining at day 6 compared with untreated cultures ([1]; GW2580 1 μM, cell counts in 5 microscope fields (FIG. 1)): approximately 70%; Surface expression of CD64 [6]: drastically reduced; MMP-9 production [7]: dose-dependent decrease

**Q.** Which results are given for “Rituximab: human IgG1 isotype control, obtained from Roche”?
**A.** IL-12p70 secretion ([2]; 3 blood donors, mAb 1 μg/ml): did not produce any detectable IL-12p70; Microscopical observation of day-6 cultures (cytotoxicity) [1]: no obvious differences
